Data published in patent US20150140089A1 (MetronomX, priority 2012, published 2015).
“And” between values parts separate entries of the source, which are not always exact repeats. Equal entries are not always repeated. Where two headings read alike, the source gives them in different places.

How the values were obtained:
[1] = In vitro release (dissolution), USP apparatus II, 5% SDS in 0.1N HCl; format: physicochemical; conditions: 0.1N HCl with 5% SDS; in 24 hr
Experimental: (§1) At specified time intervals (0.5, 1, 2, 4, 8, 10, and 24 h), 2 ml of sample was collected from each basket and replaced with the same volume of buffer.

[2] = In vitro release (dissolution) using 2% w/v SDS in deionized water; format: physicochemical
Experimental: as §1
Dissolution of each formulation was performed in duplicate.

[3] = 2% w/v SDS in water
[4] = blood level of active compound; cited from earlier work

For `CC1CS(=O)(=O)CCN1/N=C/c1ccc([N+](=O)[O-])o1` (stereo not drawn) [Nifurtimox, 3-methyl-4-(5′-nitrofurfurylidene-amino)-tetrahydro-4H-1,4-thiazine-1,1-dioxide], the “Nifurtimox degradation in dissolution samples” value [1] was “about 25%”, the “instability of Nifurtimox during dissolution (in words)” value [2] was “no significant instability” and the “Estimated Amount of Nifurtimox” value ([3]; 25 °C, 0 hr) was 344.22 µg/mL. The “Estimated Amount of Nifurtimox” value ([3]; 25 °C, 4 hr) was 339.96 µg/mL, the “Estimated Amount of Nifurtimox” value ([3]; 25 °C, 8 hr) was 345.38 µg/mL and the “Estimated Amount of Nifurtimox” value ([3]; 25 °C, 12 hr) was 346.21 µg/mL. The “Estimated Amount of Nifurtimox” value ([3]; 25 °C, 16 hr) was 346.94 µg/mL, the “Estimated Amount of Nifurtimox” value ([3]; 25 °C, 20 hr) was 344.92 µg/mL and the “Estimated Amount of Nifurtimox” value ([3]; 25 °C, 24 hr) was 341.80 µg/mL. The “Estimated Amount of Nifurtimox” value ([3]; 37 °C, 1 hr) was 338.78 µg/mL, the “Estimated Amount of Nifurtimox” value ([3]; 37 °C, 2 hr) was 339.74 µg/mL and the “Estimated Amount of Nifurtimox” value ([3]; 37 °C, 3 hr) was 338.78 µg/mL. For the same compound, the “Estimated Amount of Nifurtimox” value ([3]; 37 °C, 24 hr) was 343.76 µg/mL and 339.56 µg/mL, the half-life [4] was 2.95 ± 1.19 h and the time to peak [4] was 1 to 2 h.
